Results: patent US12441710B2, “Substituted piperidino compounds and related methods of treatment” (Alkermes, Inc., priority 2020, dated 2025)

What was measured:
[1] = biological target: T1, human orexin-2 receptor (OX2R) (Homo sapiens, UniProt O43614); assay: Human OX2R IP1 assay; type: cell-based; conditions: T-Rex CHO cells stably overexpressing human OX2R; IP1 accumulation, 1 hr at 37 degrees C
T1 construct: expressed in transfected cells
T1 sequence (O43614 1-444): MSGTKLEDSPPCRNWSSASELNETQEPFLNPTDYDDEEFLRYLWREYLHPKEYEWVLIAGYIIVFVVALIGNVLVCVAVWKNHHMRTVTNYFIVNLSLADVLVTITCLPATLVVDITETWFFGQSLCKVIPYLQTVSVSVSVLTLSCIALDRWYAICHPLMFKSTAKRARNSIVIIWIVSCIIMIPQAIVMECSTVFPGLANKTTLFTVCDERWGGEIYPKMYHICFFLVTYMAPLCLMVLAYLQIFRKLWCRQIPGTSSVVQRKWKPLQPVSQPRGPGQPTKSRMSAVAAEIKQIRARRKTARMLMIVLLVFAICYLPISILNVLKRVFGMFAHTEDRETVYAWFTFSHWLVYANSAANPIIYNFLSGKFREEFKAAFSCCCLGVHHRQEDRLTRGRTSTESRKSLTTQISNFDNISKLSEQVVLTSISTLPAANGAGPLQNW
Protocol: T-Rex CHO cells stably overexpressing the human orexin-2 receptor (OX2R) were induced overnight with 1 μg/mL of doxycycline in a T225 flask. 24 hours post induction, cells were lifted with accutase and plated into a 384-well proxy plate at 30,000 cells/well. Cells were then treated with different test compounds in 1× stimulation buffer containing 10 mM Hepes, 1 mM CaCl2), 0.5 mM MgCl2, 4.2 mM KCl, 146 mM NaCl, 5.5 mM glucose, and 50 mM LiCl, pH 7.4, for 1 hr at 37 degrees C. Following incubation, the reaction was terminated by the addition of detection mix, which is composed of IP1-d2 and anti-IP1-cryptate diluted in lysis buffer as well as 1× stimulation buffer. The plates were allowed to incubate for 1 hour at room temperature and were then read in the EnVision® multimode plate reader, measuring inositol phosphate levels.
Cisbio IP1 is a cell-based functional assay quantifying the accumulation of inositol monophosphate (IP), a metabolite released as a result of orexin 2 receptor activation through the phospholipase C-Gq signaling pathway. This is a competitive immunoassay in which the IP1 produced by the cells upon receptor activation competes with the IP1 analog coupled to the d2 fluorophore (acceptor) for binding to an anti-IP1 monoclonal antibody labeled with Eu cryptate (donor). The measured HTRF-FRET based signal is inversely proportional to the IP1 concentration produced.
The EC50 values reported in Table 2 were obtained according to the human OX2R IP1 assay described above. Data are the mean EC50 values±S.E.M. The compound methyl (2R,3S)-3-((methylsulfonyl)amino)-2-(((cis-4-phenylcyclohexyl)oxy)methyl)-piperidine-1-carboxylate (sometimes referred to herein as Reference Compound A) is a reference compound which is disclosed in Example 5 of PCT publication no. WO2017/135306.

MDR1 = assay: MDCK-MDR1 permeability assay; type: in vitro ADME; conditions: dog, 3 μM test compound; for efflux ratio at 2 h, 3 μM: Papp (B→A) divided by Papp (A→B), read-out: Efflux ratio (ER); for Papp A→B at 2 h, 3 μM: apical to basolateral, 2 hours at 37 degrees C
Protocol: The bidirectional permeability (Apical to Basal and Basal to Apical directions) of test compounds in MDCK-MDR1 cells were evaluated using MDCK-MDR1 cells seeded in Solvo PreadyPort™ MDCK 96-well plate. Once the plate was received from ReadyCell (Barcelona, Spain), it was treated as per PreadyPort™ user's manual.
For the Apical to Basolateral (A→B) permeability, 80 μL of test compound (3 μM) co-dosed with LY (Lucifer Yellow) (100 μM) in HBSS (Hank's Balanced Salt Solution) assay buffer was added to the donor side (A) while 250 μL of HBSS buffer was added to the receiver side (B). For the Basolateral to Apical (B→A) permeability, 255 μL of test compound (3 μM) in HBSS assay buffer was added to the donor side (B) while 75 μL of HBSS buffer containing LY (100 μM) was added to the receiver side (A).
The plate was placed in an incubator set at 37 degrees C. After 10 minutes of pre-warming, 5 μL aliquot was taken from donor compartment and set aside as the dosing solution. The MDCK-MDR1 incubation plate was placed back into the incubator for 2 hours of incubation at 37 degrees C. After 2 hours of incubation, 25 μL and 5 μL aliquots were removed from the receiver and donor sides, respectively. To the 5 μL aliquots taken from the donor sides (before and after a 2-hour incubation) were diluted with 20 μL of the HBSS buffer. All samples were mixed with 150 μL with acetonitrile containing internal standard (IS) and 200 μL water, and analyzed by LC-MS/MS.
The apparent permeability (Papp) was calculated using the following formula: Papp=dQ/dt×1/A×C0 where: • dQ/dt: amount of translocated material over incubation time (nmol/s) • A: area of insert (0.14 cm^2 for PreadyPort™ MDR1-96) • C0: initial concentration of product applied in apical (A→B) or basal (B→A) compartment (nmol/mL).
The efflux ratio (ER) was measured by dividing the Papp (basolateral to apical direction) by Papp (apical to basolateral direction). It is a general measure of the involvement of active processes. An ER >2 is considered positive for active transport.
The data reported in Table 3 were obtained according to the MDCK-MDR1 permeability assay described above.

[2] = Hepatocytes stability assay (human hepatocytes); type: in vitro ADME; conditions: both sexes, cryopreserved hepatocytes, 1 μM test compound, 1×10^6 cell/mL, read-out: CLint (μL/min/million cells)
Protocol: (§1) In vitro metabolic stability was assessed using cryopreserved hepatocytes from male Sprague Dawley rats and a pool of 50 mixed gender humans (BioIVT, Baltimore, MD). The incubation mixtures were prepared by mixing 250 μL of pre-warmed KHB (Krebs-Henseleit buffer) containing 2×10^6 cell/mL of hepatocytes with 250 μL of pre-warmed KHB buffer containing 2 μM of test compounds in a 48-well plate, giving a final concentration of 1 μM test compound (0.1% DMSO) and 1×10^6 cell/mL of hepatocytes. The reaction mixture was incubated at 37 degrees C. A 50 μL aliquot of incubation mixture was taken at time points (0, 15, 30, 60, 120 and 240 minutes) and transferred into a 96-well plate containing 300 μL ice-cold acetonitrile (containing 30 ng/mL of labetalol and 10 ng/mL of Naltrexone-d3 as internal standards) and immediately placed in ice to terminate the reaction. Samples were centrifuged, and supernatants were transferred into 96-well plates for liquid chromatography with tandem mass spectrometry (LC-MS/MS) analysis to monitor the depletion of the test compound. Data was calculated as percent remaining by assuming zero-minute time point peak area ratio (analyte/IS) as 100% and dividing remaining time point peak area ratios by zero-minute time point peak area ratio. Data were fitted to a first-order decay model to determine half-life. From a plot of log (ln) peak area against time, the slope of the line was determined. Subsequently, half-life (T1/2) and intrinsic clearance (CLint) were calculated using the equations below: • Elimination rate constant (k)=(−slope) • Half-life (T1/2) min=0.693/k • Intrinsic Clearance (CLint) (mL/min/million cells)=(V×0.693)/T1/2 • V=incubation volume mL/number of cells The in vitro T1/2 was converted to in vitro intrinsic clearance (CLint,hep) in units of mL/min/kg using the formula shown below: The in vitro intrinsic clearance (CLint,hep) was scaled to in vivo hepatic clearance (CL,hep) using the following equation which was adapted from a well-stirred model. [formula] where Q is the liver blood flow and fu is the fraction unbound (assumed to be unity in this case). All parameters used in the calculation are shown below (Table 4). The extraction ratio (ER) was calculated by dividing the hepatic clearance of a compound to the liver blood flow. The data reported in Table 5 were obtained according to the human hepatocytes stability assay described above.

human hepatocytes = assay: Hepatocytes stability assay (human hepatocytes); type: in vitro ADME; conditions: hepatic clearance divided by liver blood flow, fu assumed unity
Protocol: as §1

Sprague-Dawley rats = assay: Assessment of wake promotion in Sprague-Dawley rats (EEG/EMG); type: in vivo, rat; conditions: PO, 3 mpk; male Sprague-Dawley rats; 6-hour post-dose period
Protocol: Wake promotion was assessed using electroencephalography (EEG) and electromyography (EMG) in adult male Sprague-Dawley rats. All rats (Charles River Laboratories, Raleigh, NC, USA) were intraperitoneally implanted with telemetry devices (F50-EEE, Data Sciences International Inc., MN, USA) under isoflurane anesthesia. For EEG, stainless steel screws were implanted over frontal cortex and parietal cortex, and reference screws were placed over cerebellum. Additionally, an electrode was placed in neck muscle for EMG. Rats were given carprofen post-surgery and underwent a 7 to 10-day recovery period. Rats habituated to the experimental room for 7 days and were maintained on a 12-hour light-dark cycle.
EEG and EMG data were recorded using the DSI telemetry system and Ponemah software (Data Sciences International Inc., MN, USA). Sleep-wake stages were scored both manually and with Somnivore, a supervised machine learning software platform, in 10 second epochs. Records were visually inspected as needed post-processing.
All test compounds were dissolved in 5% DMSO and suspended in 95% saline with 0.5% methylcellulose and 0.5% tween. […] Unless otherwise indicated, all compounds were dosed orally. Recordings for each rat were initiated immediately after dosing and lasted for 6 hours post-dose.
Two key endpoints include wakefulness time and cortical activation time. […]

SMILES	EC50 [1] [nM]	efflux ratio at 2 h, 3 μM (MDR1)	Papp A→B at 2 h, 3 μM (MDR1) [×10⁻⁶ cm/s]	hepatocyte CLint at 1 μM [2] [µL/min/1e6 cells]	Extraction Ratio (ER) (human hepatocytes)	Mean cortical activation time (% vehicle treatment) (Sprague-Dawley rats)
C[C@H](c1ccccc1)N1CC[C@H](NS(C)(=O)=O)C(COC2CCC(c3ccccc3)CC2)C1 (some centres unmarked) [Compound 38]	> 1000	3.2	0.74	91	0.93	
C[C@@H](c1ccccc1)N1CC[C@H](NS(C)(=O)=O)C(COC2CCC(c3ccccc3)CC2)C1 (some centres unmarked) [Compound 37]	> 1000	12	0.38	99	0.94	
CS(=O)(=O)N[C@H]1CCN(c2ccccn2)C[C@H]1CO[C@H]1CC[C@@H](c2cccc(F)c2)CC1 [Compound 6]	< 100	2.8	1.3	44	0.87	
CS(=O)(=O)N[C@H]1CCN(c2ccccn2)CC1COC1CCC(c2ncccn2)CC1 (some centres unmarked) [Compound 11]		11	1.6	21	0.76	
CS(=O)(=O)N[C@H]1CCN(c2ccc(F)cn2)CC1COC1CCC(c2ccccc2)CC1 (some centres unmarked) [Compound 24]		30	0.28	42	0.86	
CS(=O)(=O)N[C@H]1CCN(c2ccccn2)CC1COC1CCC(c2cncnc2)CC1 (some centres unmarked) [Compound 12]		33	1	35	0.84	
CS(=O)(=O)N[C@H]1CCN(Cc2ccncc2)CC1COC1CCC(c2ccccc2)CC1 (some centres unmarked) [Compound 41]		16	1.7	107	0.94	
O=S(=O)(N[C@H]1CCN(c2ccccn2)C[C@H]1CO[C@H]1CC[C@@H](c2ccccc2)CC1)C(F)(F)F [Compound 53]	< 100					105.00
CS(=O)(=O)N[C@H]1CCN(c2ncccc2F)CC1COC1CCC(c2ccccc2)CC1 (some centres unmarked) [Compound 26]		37	0.31	55	0.89	
CS(=O)(=O)N[C@H]1CCN(Cc2cccnc2)CC1COC1CCC(c2ccccc2)CC1 (some centres unmarked) [Compound 40]		8.2	1.3	86	0.93	
CS(=O)(=O)N[C@H]1CCN(c2ccccn2)CC1COC1CCN(c2ncccn2)CC1 (some centres unmarked) [Compound 1]	> 1000	12	2.7	31	0.82	
CS(=O)(=O)N[C@H]1CCN(c2ccccn2)CC1COC1CCC(c2ccc(F)cc2)CC1 (some centres unmarked) [Compound 7]		> 4.3	< 1.2	39	0.85	
CS(=O)(=O)N[C@H]1CCN(c2ccccn2)CC1COC1CCC(c2ccccc2O)CC1 (some centres unmarked) [Compound 30]		28	0.7	45	0.87	
CS(=O)(=O)N[C@H]1CCN(c2ccccn2)CC1COC1CCC(c2ccnnc2)CC1 (some centres unmarked) [Compound 13]		18	0.67	16	0.71	
CS(=O)(=O)N[C@H]1CCN(c2ncccn2)CC1COC1CCC(c2ccccc2)CC1 (some centres unmarked) [Compound 19]		14	1.2	93	0.93	
